Results on six compounds are retold here after ChEMBL document CHEMBL1136344, “Green tea catechins as a BACE1 (beta-secretase) inhibitor” (Bioorg Med Chem Lett, 2003).

Bounds are passed on as bounds.

For one assay, the target named is T1, Beta-secretase 1 (Homo sapiens, UniProt P56817). Put plainly: Inhibitory activity against recombinant human Beta-secretase 1.
T1 sequence (P56817 whole entry): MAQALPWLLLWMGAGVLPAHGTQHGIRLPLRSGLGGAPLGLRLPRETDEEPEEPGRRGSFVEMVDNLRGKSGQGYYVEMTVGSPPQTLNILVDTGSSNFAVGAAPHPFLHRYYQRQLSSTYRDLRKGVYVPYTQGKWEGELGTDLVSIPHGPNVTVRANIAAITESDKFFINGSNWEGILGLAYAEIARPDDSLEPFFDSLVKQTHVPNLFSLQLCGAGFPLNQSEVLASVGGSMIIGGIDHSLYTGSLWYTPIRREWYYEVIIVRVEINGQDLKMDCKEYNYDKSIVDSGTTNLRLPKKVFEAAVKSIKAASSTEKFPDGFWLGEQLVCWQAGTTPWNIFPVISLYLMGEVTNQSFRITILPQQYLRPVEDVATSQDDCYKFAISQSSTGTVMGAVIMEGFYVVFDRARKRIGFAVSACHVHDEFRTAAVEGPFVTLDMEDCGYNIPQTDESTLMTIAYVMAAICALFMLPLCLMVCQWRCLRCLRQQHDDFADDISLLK
Usually Ki stands for the dissociation constant of the complex between target and ligand, obtained from inhibition or displacement. Turning to `O=C(O[C@H]1Cc2c(O)cc(O)cc2O[C@H]1c1ccc(O)c(O)c1)c1cc(O)c(O)c(O)c1`, the Ki stood at 5.3 µM.

The next assay concerns the target T1, Beta-secretase 1. Put plainly: Inhibition of human Beta-secretase 1.
In general, IC50 refers to the concentration that inhibits the measured activity by half. Regarding `O=C(O[C@@H]1Cc2c(O)cc(O)cc2O[C@H]1c1ccc(O)c(O)c1)c1cc(O)c(O)c(O)c1` [(-)-CATECHINGALLATE], the IC50 came out at 6 µM. `O=C(OC[C@@H]1O[C@H](OC(=O)c2cc(O)c(O)c(O)c2)[C@@H](OC(=O)c2cc(O)c(O)c(O)c2)[C@H](OC(=O)c2cc(O)c(O)c(O)c2)[C@H]1OC(=O)c1cc(O)c(O)c(O)c1)c1cc(O)c(O)c(O)c1` came in with an IC50 above 160 µM. `Oc1cc(O)c2c(c1)O[C@@H](c1cc(O)c(O)c(O)c1)[C@@H](O)C2` had an IC50 of 2.4 µM. `Oc1cc(O)c2c(c1)O[C@H](c1cc(O)c(O)c(O)c1)[C@@H](O)C2` [GALLOCATECHIN] returned a half-maximal inhibitory concentration (IC50) of 2.5 µM. Regarding `O=C(O[C@H]1Cc2c(O)cc(O)cc2O[C@H]1c1ccc(O)c(O)c1)c1cc(O)c(O)c(O)c1`, inhibition was half-maximal at 4.5 µM (IC50). For the compound `O=C(O[C@@H]1O[C@@H]2COC(=O)c3cc(O)c(O)c(O)c3-c3c(cc(O)c(O)c3O)C(=O)OO[C@H]([C@H]1O)[C@@H]2O)c1cc(O)c(O)c(O)c1`, the IC50 was above 160 µM.
